Data as given in patent US20080045534A1, “Derivatives of 1,3-diamino benzene as potassium channel modulators” (Valeant Pharmaceuticals North America, priority 2006, published 2008).
pEC50: −log10 of the molar value.

biological target: T1, KCNQ 2/3 (Rattus norvegicus, UniProt O88943+O88944); assay: rubidium (Rb+) efflux assay in NGF-differentiated PC-12 cells; format: cell-based; conditions: concentration for 50% of maximal Rb+ efflux, depolarization buffer (15 mM KCl), 10 min at room temperature
T1 construct: endogenous in cells; host or cells: PC-12 cells differentiated with NGF-7s
Experimental: Compounds of this invention formula were evaluated as KCNQ 2/3 modulators by measuring rhubidium release in the following assay.
Methods: PC-12 cells were grown at 37° C. and 5% CO2 in DMEM/F12 Medium supplemented with 10% horse serum, 5% fetal bovine serum, 2 mM glutamine, 100 U/ml penicillin, 100 U/ml streptomycin. They were plated in poly-D-lysine-coated 96-well cell culture microplates at a density of 40,000 cells/well and differentiated with 100 ng/ml NGF-7s for 2-5 days. For the assay, the medium was aspirated and the cells were washed once with 0.2 ml in wash buffer (25 mM Hepes, pH 7.4, 150 mM NaCl, 1 mM MgCl2, 0.8 mM NaH2PO4, 2 mM CaCl2). The cells were then loaded with 0.2 ml Rb^+ loading buffer (wash buffer plus 5.4 mM […], 5 mM glucose) and incubated at 37° C. for 2 h. Attached cells were quickly washed three times with buffer (same as Rb^+ loading buffer, but containing 5.4 mM KCl instead of RbCl) to remove extracellular Rb^+. Immediately following the wash, 0.2 ml of depolarization buffer (wash buffer plus 15 mM KCl) with or without compounds was added to the cells to activate efflux of potassium ion channels. After incubation for 10 min at room temperature, the supernatant was carefully removed and collected. Cells were lysed by the addition of 0.2 ml of lysis buffer (depolarization buffer plus 0.1% Triton X-100) and the cell lysates were also collected. If collected samples were not immediately analyzed for Rb^+ contents by atomic absorption spectroscopy (see below), they were stored at 4° C. without any negative effects on subsequent Rb^+ analysis.
The concentration of Rb^+ in the supernatants (Rb^+Sup) and cell lysates (Rb^+Lys) was quantified using an ICR8000 flame atomic absorption spectrometer (Aurora Biomed Inc., Vancouver, B.C.) under conditions defined by the manufacturer. One 0.05 ml samples were processed automatically from microtiter plates by dilution with an equal volume of Rb^+ sample analysis buffer and injection into an air-acetylene flame. The amount of Rb^+ in the sample was measured by absorption at 780 nm using a hollow cathode lamp as light source and a PMT detector. A calibration curve covering the range 0-5 mg/L Rb^+ in sample analysis buffer was generated with each set of plates. The percent Rb^+ efflux (F) was defined by
F=[Rb^+Sup/(Rb^+Sup+Rb^+Lys)]×100%.
The effect (E) of a compound was defined by:
where the Fc is the efflux in the presence of compound in depolarization buffer, Fb is the efflux in basal buffer, and Fs is the efflux in depolarization buffer, and. The effect (E) and compound concentration relationship was plotted to calculate an EC50 value, a compound's concentration for 50% of maximal Rb^+ efflux. Legend: A: EC50<50 nM; B: EC50=50 nM-200 nM; C: EC50=200 nM-1.0 μM; D: EC50=1.0 μM-10 μM; E: EC50>10 μM

| SMILES | pEC50 |
| --- | --- |
| Cc1ccc(NCc2ccc(C(F)(F)F)cc2)c(C)c1NC(=O)CCC1CCCC1 | > 7.30 |
| Cc1ccc(NCc2ccc(F)cc2)c(C)c1NC(=O)CCC1CCCC1 | > 7.30 |
| CCc1ccc(NCc2ccc(F)cc2)c(CC)c1NC(=O)CCC1CCCC1 | > 7.30 |
| Cc1ccc(NCc2ccc(F)cc2)c(C)c1NC(=O)CC(C)(C)C | 6.70 to 7.30 |
| CCc1c(NCc2ccc(F)cc2)ccc(C)c1NC(=O)CC(C)(C)C | 6.70 to 7.30 |
| CCc1ccc(NCc2ccc(F)cc2)c(C)c1NC(=O)CC(C)(C)C | 6.70 to 7.30 |
| COc1ccc(NCc2ccc(F)cc2)c(C)c1NC(=O)CCC1CCCC1 | 6.70 to 7.30 |
| Cc1ccc(NCc2ccc(C(F)(F)F)cc2)c(C)c1NC(=O)CC(C)(C)C | 6.00 to 6.70 |
| Cc1c(NCc2ccc(F)cc2)cccc1NC(=O)CC(C)(C)C | 6.70 to 7.30 |
| Cc1ccc(NCc2ccc(F)cc2)cc1NC(=O)CC(C)(C)C | 6.00 to 6.70 |
| Cc1ccc(NCc2ccc(F)cc2)c(Cl)c1NC(=O)CC(C)(C)C | 6.70 to 7.30 |
| Cc1ccc(NC(=O)CC(C)(C)C)cc1N1CCOCC1 | 5.00 to 6.00 |
| Cc1ccc(N2CCOCC2)cc1NC(=O)CC(C)(C)C | < 5.00 |
| Cc1c(NC(=O)CC(C)(C)C)cccc1N1CCOCC1 | < 5.00 |
| Cc1ccc(N2CCOCC2)c(C)c1NC(=O)CC(C)(C)C | 5.00 to 6.00 |
| COc1ccc(N2CCOCC2)c(C)c1NC(=O)CC(C)(C)C | 5.00 to 6.00 |
| Cc1c(N2CCOCC2)ccc(F)c1NC(=O)CC(C)(C)C | 5.00 to 6.00 |
| CC(C)(C)CC(=O)Nc1cc(N2CCOCC2)c(F)cc1F | 5.00 to 6.00 |
| CC(C)(C)CC(=O)Nc1ccc(F)c(N2CCOCC2)c1 | < 5.00 |
| Cc1cc(Cl)c(N2CCOCC2)cc1NC(=O)CC(C)(C)C | 5.00 to 6.00 |
| Cc1ccc(N2CCc3ccccc3C2)cc1NC(=O)CC(C)(C)C | 6.00 to 6.70 |
